Data as given in ChEMBL document CHEMBL1201862, “PubChem BioAssay data set” (2004).
Calls of active or inactive are those of the source.

Assays:
[1] = A Cell Based Secondary Assay To Explore Cytotoxicity of Compounds that Sensitize Mycobacterium Tuberculosis to Beta-Lactam Antibiotics.; assay type: functional
H9c2 = assay: cells; assay type: functional, cell-based; details: Rattus norvegicus, H9c2, Myocardium;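 also: confirmatory concentration-response retest of ultra-high-throughput screening hits for modulation of myocardial damage; cell death induced by hydrogen peroxide oxidative stress; compound pretreatment for 60 min then peroxide exposure for 2 h; potency is for protecting the cells against peroxide damage rather than for killing them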
[2] = target: Voltage-dependent T-type calcium channel subunit alpha-1H (Homo sapiens, UniProt O95180); assay type: functional;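 also: channel activity triggered by adding a high calcium stimulation buffer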
Chain of Voltage-dependent T-type calcium channel subunit alpha-1H (O95180 whole entry): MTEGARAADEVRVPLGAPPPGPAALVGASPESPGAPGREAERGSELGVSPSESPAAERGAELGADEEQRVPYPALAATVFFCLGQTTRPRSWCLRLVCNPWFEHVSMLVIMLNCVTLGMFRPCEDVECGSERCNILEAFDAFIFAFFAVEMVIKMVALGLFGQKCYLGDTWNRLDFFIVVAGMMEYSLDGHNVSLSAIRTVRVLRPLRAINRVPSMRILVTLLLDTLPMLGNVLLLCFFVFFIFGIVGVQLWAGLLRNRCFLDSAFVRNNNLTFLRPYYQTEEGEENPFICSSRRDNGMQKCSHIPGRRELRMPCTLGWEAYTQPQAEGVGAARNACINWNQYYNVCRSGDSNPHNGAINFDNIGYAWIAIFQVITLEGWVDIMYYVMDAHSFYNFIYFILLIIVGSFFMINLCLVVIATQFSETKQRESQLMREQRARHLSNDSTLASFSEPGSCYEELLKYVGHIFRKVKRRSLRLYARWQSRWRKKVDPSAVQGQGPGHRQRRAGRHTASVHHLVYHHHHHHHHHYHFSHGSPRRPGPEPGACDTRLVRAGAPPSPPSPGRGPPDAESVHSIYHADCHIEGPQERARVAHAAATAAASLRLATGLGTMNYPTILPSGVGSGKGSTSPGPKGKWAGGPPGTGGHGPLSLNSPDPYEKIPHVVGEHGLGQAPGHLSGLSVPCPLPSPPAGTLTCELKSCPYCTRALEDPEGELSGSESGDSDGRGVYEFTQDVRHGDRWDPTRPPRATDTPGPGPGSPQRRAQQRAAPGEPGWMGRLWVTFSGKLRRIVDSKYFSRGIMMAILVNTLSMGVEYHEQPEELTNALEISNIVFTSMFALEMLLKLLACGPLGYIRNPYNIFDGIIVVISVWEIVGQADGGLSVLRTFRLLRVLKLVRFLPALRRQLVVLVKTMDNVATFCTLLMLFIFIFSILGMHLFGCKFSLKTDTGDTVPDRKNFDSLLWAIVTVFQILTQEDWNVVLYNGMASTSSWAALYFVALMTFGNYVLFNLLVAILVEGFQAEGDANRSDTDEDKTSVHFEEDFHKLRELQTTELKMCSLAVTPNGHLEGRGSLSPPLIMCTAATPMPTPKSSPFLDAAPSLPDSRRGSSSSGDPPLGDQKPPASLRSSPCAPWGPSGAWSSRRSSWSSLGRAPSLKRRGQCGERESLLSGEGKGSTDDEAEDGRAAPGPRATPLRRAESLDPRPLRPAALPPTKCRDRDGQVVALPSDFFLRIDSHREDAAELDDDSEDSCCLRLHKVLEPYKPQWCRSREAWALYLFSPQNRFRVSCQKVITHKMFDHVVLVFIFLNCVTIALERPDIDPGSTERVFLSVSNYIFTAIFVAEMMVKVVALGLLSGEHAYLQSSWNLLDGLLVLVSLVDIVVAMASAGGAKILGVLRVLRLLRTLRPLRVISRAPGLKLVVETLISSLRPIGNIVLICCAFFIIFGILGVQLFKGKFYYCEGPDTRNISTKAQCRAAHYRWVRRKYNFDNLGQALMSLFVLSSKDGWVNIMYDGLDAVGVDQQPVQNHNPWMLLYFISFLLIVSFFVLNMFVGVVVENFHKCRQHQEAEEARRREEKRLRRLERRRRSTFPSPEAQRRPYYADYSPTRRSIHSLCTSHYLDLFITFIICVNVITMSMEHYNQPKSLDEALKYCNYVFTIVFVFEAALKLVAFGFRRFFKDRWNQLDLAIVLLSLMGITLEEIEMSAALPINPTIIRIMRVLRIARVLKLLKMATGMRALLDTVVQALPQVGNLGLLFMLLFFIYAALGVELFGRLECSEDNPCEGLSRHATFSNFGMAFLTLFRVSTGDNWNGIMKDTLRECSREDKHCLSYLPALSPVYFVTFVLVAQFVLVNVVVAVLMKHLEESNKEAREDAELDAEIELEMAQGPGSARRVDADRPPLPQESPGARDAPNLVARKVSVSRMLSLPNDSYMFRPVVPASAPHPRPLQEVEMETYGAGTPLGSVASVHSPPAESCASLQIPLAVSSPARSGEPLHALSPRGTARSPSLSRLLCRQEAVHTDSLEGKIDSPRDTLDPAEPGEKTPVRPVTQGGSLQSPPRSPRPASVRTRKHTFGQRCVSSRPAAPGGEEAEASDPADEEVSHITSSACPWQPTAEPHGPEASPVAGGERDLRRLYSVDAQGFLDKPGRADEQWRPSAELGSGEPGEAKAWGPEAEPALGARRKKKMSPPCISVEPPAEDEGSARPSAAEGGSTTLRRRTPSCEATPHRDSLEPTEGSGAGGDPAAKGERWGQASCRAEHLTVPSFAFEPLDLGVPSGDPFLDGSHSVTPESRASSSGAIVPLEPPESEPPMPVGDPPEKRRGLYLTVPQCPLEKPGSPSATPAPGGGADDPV

Cytochrome P450 1A2 = target: T1, Cytochrome P450 1A2 (Homo sapiens, UniProt P05177);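 also: PubChem cytochrome P450 panel assay, CYP1A2 panel member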
T1 sequence (P05177 whole entry): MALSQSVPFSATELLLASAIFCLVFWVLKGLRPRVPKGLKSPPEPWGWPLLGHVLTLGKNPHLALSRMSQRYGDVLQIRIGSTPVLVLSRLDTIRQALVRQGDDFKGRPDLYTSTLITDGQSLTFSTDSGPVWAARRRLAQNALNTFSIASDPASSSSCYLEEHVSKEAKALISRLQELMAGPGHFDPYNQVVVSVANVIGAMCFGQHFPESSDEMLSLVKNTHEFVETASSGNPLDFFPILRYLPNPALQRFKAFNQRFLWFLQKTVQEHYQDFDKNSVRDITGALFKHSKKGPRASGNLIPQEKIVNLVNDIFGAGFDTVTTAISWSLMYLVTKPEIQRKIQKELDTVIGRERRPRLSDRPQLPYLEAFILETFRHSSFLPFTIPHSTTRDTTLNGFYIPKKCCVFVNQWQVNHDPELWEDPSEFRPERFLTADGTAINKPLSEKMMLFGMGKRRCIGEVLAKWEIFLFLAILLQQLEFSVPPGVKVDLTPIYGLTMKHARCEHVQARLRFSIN

Cytochrome P450 2C19 = Cytochrome P450 2C19 (Homo sapiens, UniProt P33261); assay: Cytochrome panel assay with activity outcomes. Panel member name: p450-cyp2c19 Compounds with AC50 equal or less than 10 uM are considered active; assay type: functional; details: read-out: AC50
Chain of Cytochrome P450 2C19 (P33261 whole entry): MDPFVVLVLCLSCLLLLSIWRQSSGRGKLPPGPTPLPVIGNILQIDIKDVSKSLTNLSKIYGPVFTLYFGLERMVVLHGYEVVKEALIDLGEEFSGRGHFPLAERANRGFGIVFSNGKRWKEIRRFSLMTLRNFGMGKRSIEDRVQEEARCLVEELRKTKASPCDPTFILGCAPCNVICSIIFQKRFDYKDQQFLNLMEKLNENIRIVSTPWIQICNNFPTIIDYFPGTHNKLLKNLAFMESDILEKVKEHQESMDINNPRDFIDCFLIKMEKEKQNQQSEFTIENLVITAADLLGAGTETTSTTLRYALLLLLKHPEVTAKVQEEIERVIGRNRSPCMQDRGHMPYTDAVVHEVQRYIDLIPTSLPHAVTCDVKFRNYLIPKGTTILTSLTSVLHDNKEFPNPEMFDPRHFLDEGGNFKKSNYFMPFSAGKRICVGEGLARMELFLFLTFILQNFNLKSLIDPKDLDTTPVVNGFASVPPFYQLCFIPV

Cytochrome P450 2D6 = Cytochrome P450 2D6 (Homo sapiens, UniProt P10635);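 also: CYP2D6 member of a cytochrome P450 panel assay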
Chain of Cytochrome P450 2D6 (P10635 whole entry): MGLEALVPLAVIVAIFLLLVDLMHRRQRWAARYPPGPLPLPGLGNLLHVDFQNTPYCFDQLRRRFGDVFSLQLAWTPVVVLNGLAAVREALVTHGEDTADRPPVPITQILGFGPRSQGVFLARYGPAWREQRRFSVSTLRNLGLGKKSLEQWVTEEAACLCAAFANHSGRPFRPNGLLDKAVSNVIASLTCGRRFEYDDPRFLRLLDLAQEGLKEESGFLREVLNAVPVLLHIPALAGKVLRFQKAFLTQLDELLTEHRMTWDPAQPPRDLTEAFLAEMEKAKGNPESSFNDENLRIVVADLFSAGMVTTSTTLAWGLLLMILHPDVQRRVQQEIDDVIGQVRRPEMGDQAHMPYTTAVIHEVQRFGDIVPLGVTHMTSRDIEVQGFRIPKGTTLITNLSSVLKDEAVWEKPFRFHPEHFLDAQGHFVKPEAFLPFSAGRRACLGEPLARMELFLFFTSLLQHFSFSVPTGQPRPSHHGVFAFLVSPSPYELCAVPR

Steroidogenic factor 1 = Steroidogenic factor 1 (Homo sapiens, UniProt Q13285); assay: Counterscreen for inverse agonists of the liver receptor homolog-1 (LRH-1; NR5A2): Luminescence-based cell-based high throughput dose response assay to identify inverse agonists of the Steroidogenic Factor 1 Nuclear Receptor (SF1; NR5A1).; assay type: functional
Chain of Steroidogenic factor 1 (Q13285 whole entry): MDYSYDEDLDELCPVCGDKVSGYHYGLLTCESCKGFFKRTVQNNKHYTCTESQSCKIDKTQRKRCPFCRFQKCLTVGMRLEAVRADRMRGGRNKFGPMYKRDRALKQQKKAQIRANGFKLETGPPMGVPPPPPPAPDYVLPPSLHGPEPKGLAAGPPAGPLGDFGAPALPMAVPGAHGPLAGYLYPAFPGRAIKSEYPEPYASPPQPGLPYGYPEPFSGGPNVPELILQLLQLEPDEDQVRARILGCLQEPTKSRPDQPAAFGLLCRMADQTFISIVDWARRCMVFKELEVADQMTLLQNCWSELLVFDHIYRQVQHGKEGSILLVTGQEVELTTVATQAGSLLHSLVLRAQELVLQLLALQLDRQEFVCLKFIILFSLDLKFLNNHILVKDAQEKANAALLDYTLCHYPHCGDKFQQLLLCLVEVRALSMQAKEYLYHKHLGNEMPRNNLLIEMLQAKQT

[3] = target: Nuclear receptor subfamily 5 group A member 2 (Homo sapiens, UniProt O00482); assay type: functional, cell-based;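 also: HEK293T cells transfected with LRH-1 and a StAR promoter luciferase reporter; potency for inhibitors that lower LRH-1 driven reporter light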
Chain of Nuclear receptor subfamily 5 group A member 2 (O00482 whole entry): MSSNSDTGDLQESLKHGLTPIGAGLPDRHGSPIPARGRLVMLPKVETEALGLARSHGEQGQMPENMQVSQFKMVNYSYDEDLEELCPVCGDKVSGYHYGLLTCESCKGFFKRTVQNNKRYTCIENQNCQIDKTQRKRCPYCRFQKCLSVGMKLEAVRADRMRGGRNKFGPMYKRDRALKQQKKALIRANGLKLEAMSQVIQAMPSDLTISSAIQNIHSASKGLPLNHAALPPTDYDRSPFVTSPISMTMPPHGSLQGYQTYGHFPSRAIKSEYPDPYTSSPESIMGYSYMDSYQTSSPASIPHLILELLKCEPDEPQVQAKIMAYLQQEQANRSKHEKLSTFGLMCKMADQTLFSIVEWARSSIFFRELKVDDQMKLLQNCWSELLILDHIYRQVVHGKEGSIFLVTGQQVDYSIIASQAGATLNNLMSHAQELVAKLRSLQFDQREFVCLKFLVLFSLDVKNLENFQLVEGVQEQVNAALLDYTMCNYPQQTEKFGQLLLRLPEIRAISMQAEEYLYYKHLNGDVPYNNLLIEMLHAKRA

[4] = StAR promoter reporter inhibition counter-screen, dose response, counter-screen for LRH-1 inverse agonist project, cell-based, luminescence, luciferase reporter (AID 651969); assay type: functional
cells [5] = assay type: functional, cell-based
cells [6] = assay type: functional, cell-based; remark: listed apart in the source
[7] = target: T2, Histone-lysine N-methyltransferase NSD2 (Homo sapiens, UniProt O96028); assay type: biochemical
T2 sequence (O96028 whole entry): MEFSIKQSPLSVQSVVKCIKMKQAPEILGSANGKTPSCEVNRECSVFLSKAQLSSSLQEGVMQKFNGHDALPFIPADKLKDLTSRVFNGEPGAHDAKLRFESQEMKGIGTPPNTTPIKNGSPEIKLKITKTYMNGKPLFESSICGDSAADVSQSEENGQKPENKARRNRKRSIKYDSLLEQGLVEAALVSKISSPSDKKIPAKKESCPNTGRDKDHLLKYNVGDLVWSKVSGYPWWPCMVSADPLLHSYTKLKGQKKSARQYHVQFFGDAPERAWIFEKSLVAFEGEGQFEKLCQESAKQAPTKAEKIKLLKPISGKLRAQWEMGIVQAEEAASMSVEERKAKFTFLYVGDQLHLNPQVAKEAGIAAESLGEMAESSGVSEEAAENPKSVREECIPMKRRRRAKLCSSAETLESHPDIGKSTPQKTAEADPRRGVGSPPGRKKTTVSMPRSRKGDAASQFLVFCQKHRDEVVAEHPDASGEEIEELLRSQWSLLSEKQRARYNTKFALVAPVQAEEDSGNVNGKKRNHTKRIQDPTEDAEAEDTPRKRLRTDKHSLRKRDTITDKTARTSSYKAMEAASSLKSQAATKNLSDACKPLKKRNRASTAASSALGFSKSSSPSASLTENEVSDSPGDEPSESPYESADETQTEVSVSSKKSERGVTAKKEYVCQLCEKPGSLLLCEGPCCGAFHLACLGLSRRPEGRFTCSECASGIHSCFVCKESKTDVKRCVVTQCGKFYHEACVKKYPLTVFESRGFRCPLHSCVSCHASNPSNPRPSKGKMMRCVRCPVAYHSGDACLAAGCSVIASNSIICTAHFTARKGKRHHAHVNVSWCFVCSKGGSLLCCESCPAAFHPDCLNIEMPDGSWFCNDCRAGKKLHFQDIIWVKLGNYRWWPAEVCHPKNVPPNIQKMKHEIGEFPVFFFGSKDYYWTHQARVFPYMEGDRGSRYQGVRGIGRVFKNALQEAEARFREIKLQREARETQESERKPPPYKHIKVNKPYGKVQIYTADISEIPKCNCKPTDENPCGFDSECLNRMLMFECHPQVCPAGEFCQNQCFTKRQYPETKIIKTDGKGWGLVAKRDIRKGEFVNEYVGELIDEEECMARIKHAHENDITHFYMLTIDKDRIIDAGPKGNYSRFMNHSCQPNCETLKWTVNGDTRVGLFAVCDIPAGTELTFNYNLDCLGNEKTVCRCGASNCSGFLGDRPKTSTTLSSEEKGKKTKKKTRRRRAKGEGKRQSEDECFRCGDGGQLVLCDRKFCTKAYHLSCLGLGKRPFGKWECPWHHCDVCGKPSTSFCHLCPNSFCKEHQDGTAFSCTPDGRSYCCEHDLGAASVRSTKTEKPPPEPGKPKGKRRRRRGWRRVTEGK

Streptococcus = assay: Group A Streptococcus viability loss, dose response, counter-screen for streptokinase expression inhibitor project, luminescence, BacTiterGlo (AID 1915); assay type: functional, organism-based;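 also: potency for reduction of bacterial viability or growth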
Streptokinase A = target: T3, Streptokinase A (Streptococcus pyogenes serotype M1, UniProt P10520); assay: S. pyogenes streptokinase expression inhibitors, potency, dose response, plasminogen activation absorbance, OD405 (AID 1914); assay type: functional, Streptococcus pyogenes M1 GAS;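 also: secreted streptokinase activity via plasminogen activation per viability signal from cell pellet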
T3 sequence (P10520 whole entry): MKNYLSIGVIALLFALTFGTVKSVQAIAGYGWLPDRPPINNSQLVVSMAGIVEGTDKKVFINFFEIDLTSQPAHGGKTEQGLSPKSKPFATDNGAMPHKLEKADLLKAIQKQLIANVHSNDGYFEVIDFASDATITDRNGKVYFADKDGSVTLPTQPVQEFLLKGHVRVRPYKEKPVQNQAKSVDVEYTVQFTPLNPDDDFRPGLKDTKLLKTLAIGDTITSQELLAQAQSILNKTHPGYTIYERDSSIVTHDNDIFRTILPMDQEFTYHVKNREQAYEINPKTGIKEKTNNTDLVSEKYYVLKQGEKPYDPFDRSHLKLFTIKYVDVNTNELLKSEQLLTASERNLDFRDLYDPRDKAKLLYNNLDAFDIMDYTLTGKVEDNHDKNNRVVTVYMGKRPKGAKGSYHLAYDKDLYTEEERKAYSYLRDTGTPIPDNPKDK

[8] = inhibitors of clade B AD8 Env fusion, dose response, cell-based, cherry-pick (AID 652062); assay type: functional;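 also: luciferase signal from cell-cell fusion driven by HIV-1 clade B AD8 Env; potency is for inhibitors of fusion seen as a drop in luminescence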
[9] = A549 cell cytotoxicity, dose response, cytotoxicity control, plate reader, cherry-pick, antagonist series (AID 743412); assay type: functional, cell-based
[10] = intracellular Trypanosoma cruzi inhibitors in host cells – cell-based, plate reader, cherry-pick samples, set 3, dose response (AID 651818); assay type: functional;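 also: compounds incubated with infected cells for about four days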
[11] = inhibitors of HIV Env-driven cell fusion, dose response, cherry-pick (AID 652057); assay type: functional, cell-based
[12] = ZM109 Env clade C HIV-1 fusion inhibitors, dose response, HeLa effector, CEM target cells, luciferase, cherry-pick (AID 652058); assay type: functional, cell-based
Nonstructural protein 1 = Nonstructural protein 1 (Influenza A virus, UniProt Q194T2); assay type: functional, Influenza A virus (A/California/07/2009(H1N1))
Chain of Nonstructural protein 1 (Q194T2 whole entry): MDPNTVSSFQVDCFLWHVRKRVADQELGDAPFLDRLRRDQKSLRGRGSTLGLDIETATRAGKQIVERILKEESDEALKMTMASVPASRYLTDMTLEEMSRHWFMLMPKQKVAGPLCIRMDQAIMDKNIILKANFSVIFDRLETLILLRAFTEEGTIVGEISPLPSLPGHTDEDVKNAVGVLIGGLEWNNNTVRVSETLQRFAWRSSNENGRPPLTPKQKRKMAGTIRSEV

[13] = P. falciparum ATP4 D1247Y mutant growth inhibitors, dose response, NITD609-resistant line, SYBR Green, dry powder (AID 1159571); assay type: functional, cell-based;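 also: parasites synchronized at ring stage by sorbitol before testing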
[14] = P. falciparum Dd2 growth inhibitors, dose response, SYBR Green, dry powder samples (AID 1159566); assay type: functional, cell-based;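 also: potency for growth inhibition with lower SYBR green DNA signal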
[15] = P. falciparum 3D7-ScDHODH growth inhibitors, dose response, SYBR Green, dry powder samples (AID 1159570); assay type: functional, cell-based;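 also: parasite growth measured after 72 hours of compound exposure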
[16] = P. falciparum Dd2 growth inhibitors, dose response, SYBR Green, cherry-picked samples (AID 1159567); assay type: functional, cell-based

c1ccc(-c2oc3ncnc(NCCN4CCOCC4)c3c2-c2ccccc2)cc1
CC50 [1]: > 40 µM (active)
IC50 (H9c2): > 79 µM (inactive)

Cc1ccc(S(=O)(=O)NC(=O)c2ccc(-c3ccc(-c4ccccc4)cc3)o2)c(C)c1
EC50 [2]: 3.33 µM (active)

COC(=O)[C@@]1(Cc2ccc(F)cc2)[C@H]2c3cc(C(=O)N(C)C)n(Cc4ccc(OC)c(OC)c4)c3C[C@H]2CN1C(=O)c1ccccc1
CC50 [1]: > 40 µM (active)
AC50 (Cytochrome P450 1A2): 31.6 µM (inconclusive)
AC50 (Cytochrome P450 2C19): 39.8 µM (inconclusive)
AC50 (Cytochrome P450 2D6): 39.8 µM (inconclusive)

CCCOc1ccc(NC(=O)CC2C(=O)N(C)C(=S)N2Cc2ccc3c(c2)OCO3)cc1 (stereo not drawn)
IC50 (Steroidogenic factor 1): 2.03 µM (active)
IC50 [3]: 1.67 µM (active)
IC50 [4]: 35.9 µM (inactive)

Cc1cccc(N2CCN(CC(=O)Nc3nccs3)CC2)c1C
EC50 [2]: 6.29 µM (active)

Nc1nc(SCC(=O)N2CCCC2)nc(O)c1-c1ccccc1
EC50 (cells [5]): > 350 µM (not active)
EC50 (cells [6]): > 350 µM (not active)

Nc1c(C(=O)OCC2CCCO2)c2nc3ccccc3nc2n1C1CCCCC1 (stereo not drawn)
AC50 [7]: 10 µM (active)

FC(F)Oc1ccccc1C1CC(c2ccc(Br)s2)Nc2ncnn21 (stereo not drawn)
EC50 (Streptococcus): > 150 µM (not active)
CC50 [1]: > 40 µM (active)
EC50 (Streptokinase A): > 150 µM (not active)

O=C(COC(=O)CCN1C(=O)C2CC=CCC2C1=O)NCCc1ccccc1 (stereo not drawn)
IC50 (Steroidogenic factor 1): 25.8 µM (inactive)
IC50 [3]: 38 µM (inactive)
IC50 [4]: 35.9 µM (inactive)

O=S(=O)(c1cccc(S(=O)(=O)N2CCC(Cc3ccccc3)CC2)c1)N1CCOCC1
EC50 [2]: 8.09 µM (active)

COc1cc(C(=O)Nc2sc(C)c(C)c2C(=O)O)cc(OC)c1OC
EC50 (cells [5]): > 350 µM (not active)
EC50 (cells [6]): > 350 µM (not active)

Cc1ccc(-n2nnnc2-c2cnn(-c3ccc(F)cc3)c2C(F)(F)F)cc1
AC50 [8]: 33.9 µM (active)

CCOC(=O)c1c(C)nc2sc(C(=O)Nc3ccccc3)c(N)c2c1-c1ccc(OC)cc1
CC50 [1]: 3.99 µM (active)

O=C(Nc1ccc(N2CCOCC2)c(S(=O)(=O)Nc2ccccc2Cl)c1)c1ccc(F)cc1
AC50 [9]: > 52 µM (inactive)

COc1ccc(CCNC(=O)CSc2nn3c(=O)c(C)nnc3s2)cc1OC
IC50 (Steroidogenic factor 1): 12 µM (inactive)
IC50 [3]: 35.9 µM (inactive)
IC50 [4]: 35.9 µM (inactive)

CC1(C)CN(c2cccc(C#N)c2)C1=O
AC50 [7]: 10.7 µM (active)

CC(C)Oc1cccc(-c2cc(C(=O)NN3CCOCC3)c3ccccc3n2)c1
IC50 (Steroidogenic factor 1): 15.9 µM (inactive)
IC50 [3]: 35.9 µM (inactive)
IC50 [4]: 35.9 µM (inactive)

C[C@H](CO)N1C[C@H](C)[C@@H](CN(C)CC2CCCCC2)Oc2c(NC(=O)c3nc4ccccc4s3)cccc2C1=O
AC50 [10]: 1.21 µM (active)

COc1ccc(CCNC(=O)CN2C(=O)NC3(CCCCC3C)C2=O)cc1 (stereo not drawn)
IC50 (Steroidogenic factor 1): 4.78 µM (active)
IC50 [3]: 1.31 µM (active)
IC50 [4]: 35.9 µM (inactive)

C[C@@H]1CN([C@H](C)CO)C(=O)c2cccc(N(C)C)c2O[C@H]1CN(C)Cc1ccc(Oc2ccccc2)cc1
AC50 [10]: 2.51 µM (active)

COc1cccc(S(=O)(=O)N(C)C[C@H]2Oc3cc(C#CCC(C)C)ccc3S(=O)(=O)N([C@H](C)CO)C[C@H]2C)c1
AC50 [11]: 34.5 µM (active)
AC50 [8]: 17.9 µM (active)

Cc1ccc(S(=O)(=O)Nc2cccc3c2O[C@H](CN(C)Cc2ccc(Cl)c(Cl)c2)[C@H](C)CN([C@H](C)CO)C3=O)cc1
AC50 [12]: 0.308 µM (active)
AC50 [11]: < 0.26 µM (active)
AC50 [8]: 1.37 µM (active)

O=C(CN1CCCC1)N/N=C/c1c(O)ccc2ccccc12
EC50 (cells [5]): 8.38 µM (active)
EC50 (cells [6]): > 350 µM (not active)
IC50 (Nonstructural protein 1): 9.17 µM (active)

CO[C@@H]1CN(C)C(=O)c2ccc(NC(=O)c3nc4ccccc4s3)cc2OC[C@H](C)N(Cc2ccncc2)C[C@@H]1C
AC50 [13]: 0.725 µM (active)
AC50 [14]: 0.792 µM (active)
AC50 [15]: 1.86 µM (active)
AC50 [16]: 0.985 µM (active)

COc1ccc2c3c(n(C)c2c1)[C@@H](CO)N(C(=O)C1CC1)CC31CCN(C(=O)Nc2cccc(F)c2)CC1
AC50 [13]: 0.441 µM (active)
AC50 [14]: 0.343 µM (active)
AC50 [15]: 0.171 µM (active)
AC50 [16]: 0.506 µM (active)

Cc1ccc(S(=O)(=O)N(C)C[C@H]2OCc3ccccc3-c3c(n(C)c4ccccc34)C(=O)N([C@H](C)CO)C[C@@H]2C)cc1
AC50 [13]: 1.08 µM (active)
AC50 [14]: 1.47 µM (active)
AC50 [15]: 1.27 µM (active)
AC50 [16]: 2.36 µM (active)
